Where “and” joins values, the source holds several entries; their conditions need not be identical. Equal values may be shown once.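 Tested at 5 concentrations; 48 h exposure; 96-well plates; endpoints linearly interpolated, else capped at highest concentration. GI50 = concentration required for 50% inhibition of growth. TGI denotes the concentration required for complete inhibition of growth.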
Key:
Assay in all cases: NCI-60 cell line screen, 48 h
BT-549 breast = tested on: BT-549 breast
HCT-15 colon = tested on: HCT-15 colon
IGROV1 ovarian = tested on: IGROV1 ovarian
KM12 colon = tested on: KM12 colon
MDA-MB-435 = tested on: MDA-MB-435
PC-3 prostate = tested on: PC-3 prostate
SF-539 CNS = tested on: SF-539 CNS
SNB-19 CNS = tested on: SNB-19 CNS
SNB-75 CNS = tested on: SNB-75 CNS
SR leukemia = tested on: SR leukemia

SMILES | GI50 (BT-549 breast) [µM] | TGI (BT-549 breast) | GI50 (HCT-15 colon) | TGI (HCT-15 colon) | GI50 (IGROV1 ovarian) | TGI (IGROV1 ovarian) | GI50 (KM12 colon) | TGI (KM12 colon) | GI50 (MDA-MB-435) | TGI (MDA-MB-435) | GI50 (PC-3 prostate) | TGI (PC-3 prostate) | GI50 (SF-539 CNS) [µM] | TGI (SF-539 CNS) | GI50 (SNB-19 CNS) | TGI (SNB-19 CNS) | GI50 (SNB-75 CNS) [µM] | TGI (SNB-75 CNS) | GI50 (SR leukemia) [µM] | TGI (SR leukemia) [µM]
COc1cc(OC)cc(-c2n/c(=C\c3c(O)[nH]c4ccc(Cl)cc34)cc3c2=Nc2ccccc2-3)c1 | 3 | 9.75 µM | 6.58 µM | 27.7 µM | 3.46 µM | 10.1 µM | 3.95 µM | 14.1 µM | 14 µM | 35.4 µM | 5.55 µM | 28.7 µM | 20.4 | 45.8 µM | 3.54 µM | 16.1 µM | 16.3 | 39.6 µM | 2.24 | 5.59
COc1cc(/C=N\NC(=O)C[N+](C)(C)C)cc(OC)c1OC |  | > 10 µM |  | > 10 µM |  | > 10 µM |  | > 10 µM |  | > 10 µM |  | > 10 µM |  | > 10 µM |  | > 10 µM |  | > 10 µM |  | > 10
CC(=O)CC(C)(C)NC(=O)[C@@]1(O)CC[C@H]2[C@@H]3CCC4=CC(=O)CC[C@@H]4[C@H]3CC[C@@]21C |  | > 100 µM |  | > 100 µM |  | > 100 µM |  | > 100 µM |  | > 100 µM |  | > 100 µM |  | > 100 µM |  | > 100 µM |  | > 100 µM |  | > 100
O=C(N/N=C/c1ccc(Cl)cc1)c1cc(I)cc(I)c1O |  | > 100 µM |  | > 100 µM |  | > 100 µM |  | > 100 µM |  | > 100 µM |  | > 100 µM |  | > 100 µM |  | > 100 µM |  | > 100 µM |  | > 100
Cc1cc(O)ccc1C1(c2ccc(F)cc2)OC(=O)c2ccccc21 (centres undefined) |  | 0.653 µM |  | 12.4 µM |  | 10.2 µM |  | 7.3 µM |  | 26.9 µM |  | 5.28 µM |  | 9.29 µM |  | 15.4 µM |  | 8.01 µM |  | > 76.8
COc1ccc2c(-c3ccc(OCCN(C)C)cc3)c(Oc3ccc(Cl)cc3)c(=O)oc2c1 |  | 37.6 µM |  | 15.5 µM |  | 14.1 µM |  | 25.1 µM |  | 8.66 µM |  | 19.7 µM |  | > 30.8 µM |  | 33.6 µM |  | 27.6 µM |  | 5.06
Nc1ccc(-c2nc3ccc(F)cc3s2)cc1 |  | > 100 µM |  | > 100 µM | 21.3 µM | 71.9 µM |  | 64.3 µM |  | 70.4 µM |  | 92.6 µM |  | > 100 µM |  | > 100 µM |  | 95 µM |  | > 100
CNC(=S)N/N=C(\C)c1nc2ncccc2[nH]1 |  | 99.5 µM |  | > 100 µM |  | > 100 µM |  | > 100 µM |  | > 100 µM |  | > 100 µM |  | > 100 µM |  | > 100 µM |  | > 100 µM |  | > 100
O=C(O)c1cc(Cl)cc2c1NC1(N2)C(=O)Nc2ccccc21 (centres undefined) |  | > 100 µM |  | > 100 µM |  | > 100 µM |  | > 100 µM |  | > 100 µM |  | > 100 µM |  | > 100 µM |  | > 100 µM |  | > 100 µM |  | > 100
COc1nc(OC)nc(-c2cccc(F)c2)n1 |  | 29.7 µM |  | 29.3 µM |  | 31.8 µM |  | 31.7 µM |  | 31 µM |  | 40.2 µM |  | 32.5 µM |  | 32.4 µM |  | 44.4 µM |  | 17.5
Clc1nc(Nc2nc3ccccc3[nH]2)nc(Cl)c1Cc1ccccc1 |  | > 100 µM |  | > 100 µM |  | > 100 µM |  | > 100 µM |  | > 100 µM |  | > 100 µM |  | > 100 µM |  | > 100 µM |  | > 100 µM |  | > 100
Cc1ccnc(NC(=S)Nc2cccc(Cl)c2)c1 |  | > 100 µM |  | > 100 µM |  | > 100 µM |  | > 100 µM |  | > 100 µM |  | > 100 µM |  | > 100 µM |  | > 100 µM |  | > 100 µM |  | > 100
COc1cc(OC)c2c(O)c(S(=O)(=O)c3ccc(C)cc3)c(=O)oc2c1 |  | > 100 µM |  | > 100 µM |  | > 100 µM |  | > 100 µM |  | > 100 µM |  | > 100 µM |  | > 100 µM |  | > 100 µM |  | > 100 µM |  | > 100
CN(C)Cc1cc(C(=O)/C=C/c2cccc(Cl)c2)cc(CN(C)C)c1O |  | 25.8 µM |  | 12.7 µM |  | 14.9 µM |  | 19.7 µM |  | 12.6 µM |  | 22.8 µM |  | 19.5 µM |  | 69.9 µM |  | 6.43 µM |  | 6.93
CC(NNC(=O)c1ccncc1)c1ccc(Cl)c(Cl)c1 (centres undefined) |  | > 100 µM |  | > 100 µM |  | > 100 µM |  | > 100 µM |  | > 100 µM |  | > 100 µM |  | > 100 µM |  | > 100 µM |  | > 100 µM |  | > 100
N#Cc1c(Nc2nc3ccccc3s2)c2ccccc2n2c1nc1ccccc12 |  | > 100 µM |  | > 100 µM |  | > 100 µM |  | > 100 µM |  | > 100 µM |  | > 100 µM |  | > 100 µM |  | > 100 µM |  | 81 µM |  | > 100
CCCCc1ccc(-n2sc3ncccc3c2=O)cc1 |  | 35.7 µM |  | 19.9 µM |  | 33.3 µM |  | 32.5 µM |  | 37.5 µM |  | 25.5 µM |  | 41 µM |  | > 100 µM |  | 50.3 µM |  | 60.4
CC(C)C(C/C=C1/CC(CO)(COC(=O)C2CCCCC2)OC1=O)C(C)C (centres undefined) |  | 54.8 µM |  | 39.6 µM |  | 34.2 µM |  | 55.3 µM |  | > 100 µM |  | 35.6 µM |  | 29.1 µM |  | 29.8 µM |  | 28.8 µM |  | > 100
COc1ccc2c(c1OC)C(=O)O[C@@H]2[C@H]1c2cc3c(cc2CCN1C)OCO3 |  | > 100 µM |  | > 100 µM |  | > 100 µM |  | > 100 µM |  | > 100 µM |  | > 100 µM |  | > 100 µM |  | > 100 µM |  | > 100 µM |  | > 100
COC(=O)/C(=C\c1ccco1)P(=O)(OC)OC |  | > 100 µM |  | > 100 µM |  | > 100 µM |  | > 100 µM |  | > 100 µM |  | > 100 µM |  | 65.9 µM |  | > 100 µM |  | > 100 µM |  | > 100
COC1=CC(=O)c2c(O)c3c(c(O)c2C1=O)C[C@](C)(O)C[C@@H]3O |  | 22.5 µM |  | 15.8 µM |  | 17.2 µM |  | 19 µM |  | 3.34 µM |  | > 42.5 µM |  | 9.89 µM |  | 14.7 µM |  | 28 µM |  | 12.1
CCOC(=O)C(NC(=O)CC)(Nc1ccc(S(=O)(=O)Nc2nc(C)cc(C)n2)cc1)C(F)(F)F (centres undefined) |  | > 100 µM |  | > 100 µM |  | > 100 µM |  | > 100 µM |  | > 100 µM |  | > 100 µM |  | > 100 µM |  | > 100 µM |  | > 100 µM |  | > 100
COc1ccc(/C(=N/Nc2nc3ccccc3[nH]2)C(=O)O)cc1 |  | > 100 µM |  | > 100 µM |  | > 100 µM |  | > 100 µM |  | > 100 µM |  | > 100 µM |  | > 100 µM |  | > 100 µM |  | > 100 µM |  | > 100
Cn1c2c(c3ccccc31)CCN1C(=O)C3SC21C1C(=O)N(c2ccccc2)C(=O)C31 (centres undefined) |  | > 100 µM |  | > 100 µM |  | > 100 µM |  | > 100 µM |  | > 100 µM | 23.4 µM | > 100 µM |  | > 100 µM |  | > 100 µM | 13.4 | > 100 µM |  | > 100
CC(=O)C12C[C@](C#N)(N3CCCCCC3)C1C=Cc1ccccc12 (some centres undefined) |  | > 100 µM |  | > 100 µM |  | > 100 µM |  | > 100 µM |  | > 100 µM |  | > 100 µM |  | > 100 µM |  | > 100 µM |  | > 100 µM |  | > 100
Cc1cc(S(=O)(=O)Nc2nc3ccccc3n2-c2ccccc2)c(S)cc1Cl |  | > 100 µM |  | > 100 µM |  | > 100 µM |  | > 100 µM |  | > 100 µM |  | > 100 µM |  | > 100 µM |  | > 100 µM |  | > 100 µM |  | > 100
COc1ccc2c(c1)CC1Cc3ccccc3CCN1C2 (centres undefined) |  | > 100 µM |  | > 100 µM |  | > 100 µM |  | > 100 µM |  | > 100 µM |  | > 100 µM |  | > 100 µM |  | > 100 µM |  | > 100 µM |  | > 100
Cc1ccc(OCC2OC(n3cnc4c(Cl)ncnc43)CC2Oc2ccc(C)cc2)cc1 (centres undefined) |  | 40 µM and 49.9 µM | 1.94 µM and 11.7 µM | 4.28 µM and 41.6 µM | 2.43 µM and 5.87 µM | 5.88 µM and 14 µM | 2.42 µM and 14.3 µM | 6.57 µM and 42 µM | 5.84 µM and 2 µM | 21 µM and 16.4 µM | 3.53 µM and 17.6 µM | 9.35 µM and 34.3 µM |  | 50.6 µM and 36.1 µM | 2.8 µM and 17 µM | 6.86 µM and 33.4 µM |  | 34.3 µM and > 68.7 µM |  | > 22.7
Oc1ccc(Cl)cc1C1=N/C(=N\C/N=C2\N=C(c3cc(Cl)ccc3O)CC(c3ccccc3)N2)NC(c2ccccc2)C1 (centres undefined) |  | > 100 µM |  | > 100 µM |  | > 100 µM |  | > 100 µM |  | > 100 µM |  | > 100 µM |  | > 100 µM |  | > 100 µM |  | > 100 µM |  | > 100

Source: PubChem BioAssay (NCI)
